Reference: ChEMBL document CHEMBL6078727 (Bioorg Med Chem, 2025)
Active and inactive are the calls of the source. No cut-off for these calls is given here.

How the values were obtained:
[1] = Cmax in C57BL/6J mouse at 10 mg/kg, po administrated via oral gavage by LC-MS/MS analysis; format: ADME, organism-based; conditions: in vivo
[2] = Induction of mitochondrial uncoupling activity in rat L6 myoblast cells assessed as increase in oxygen consumption rate measured over 90 mins; format: functional, cell-based
[3] = Half-life in male C57BL/6J mouse plasma at 10 mg/kg, po administrated via oral gavage by LC-MS/MS analysis; format: ADME, organism-based; conditions: in vivo
[4] = (§1) Induction of mitochondrial uncoupling activity in rat L6 myoblast cells assessed as increase in oxygen consumption rate by measuring ratio of integrated area under OCR dose curve above baseline relative to BAM15 up to 200 uM over 90 mins; format: functional
L6 = experiment: as §1; format: functional

Row | SMILES | Cmax ([1]; C57BL/6J) [nM] | EC50 [2] [µM] | t1/2 [3] [min] | Activity [4] [%] | Cmax ([1]; po, 10 mg/kg) [nM] | Activity (L6)
1 | O=C(ONc1nc2nonc2nc1Nc1ccccc1F)c1ccc(OC(F)(F)F)cc1 | 2 | 0.34 | 15 | 118 | – | –
2 | CC(C)(C)OC(=O)NNc1nc2nonc2nc1Nc1ccccc1F | – | 4.6 | 27 | 103 | 220 | –
3 | CNNc1nc2nonc2nc1Nc1ccccc1F | – | 77 | – | 15 | – | –
4 | O=C(NNc1nc2nonc2nc1Nc1ccccc1F)NC1CCCC1 | – | 1.1 | – | 23 | – | –
5 | ONc1nc2nonc2nc1Nc1cc(F)cc(F)c1 | – | – | – | – | – | inactive
6 | CN(Nc1nc2nonc2nc1Nc1ccccc1F)C(=O)OC(C)(C)C | – | 8.4 | – | 65 | – | –
7 | O=C(NNc1nc2nonc2nc1Nc1ccccc1F)c1cccc(F)c1 | – | – | – | 8 | – | –
8 | CC(C)COC(=O)NNc1nc2nonc2nc1Nc1ccccc1F | – | 1.1 | 35.4 | 88 | 6600 | –
9 | ONc1nc2nonc2nc1Nc1ccccc1F | – | 87.6 | – | 41 | – | –
10 | ONc1nc2nonc2nc1Nc1ccc(-c2ccc(F)cc2)cc1 | – | – | – | – | – | inactive
11 | O=C(ONc1nc2nonc2nc1Nc1ccccc1F)c1cccc(F)c1 | – | 0.71 | – | 102 | – | –
12 | NNc1nc2nonc2nc1Nc1ccccc1F | – | – | – | – | – | inactive
13 | CCCCC(=O)NNc1nc2nonc2nc1Nc1ccccc1F | – | 14.2 | – | 71 | – | –
14 | CC(C)(C)OC(=O)NNc1nc2nonc2nc1Nc1cccc(Cl)c1 | – | 1.6 | – | 78 | – | –
15 | CCCCOC(=O)NNc1nc2nonc2nc1Nc1ccccc1F | – | 1.2 | – | 54 | – | –
16 | CC(C)(C)OC(=O)NNc1nc2nonc2nc1Nc1cccc(F)c1 | – | 1.1 | – | 32 | – | –
17 | CC(C)(C)C(=O)ONc1nc2nonc2nc1Nc1ccccc1F | – | 5.2 | – | 86 | – | –
18 | O=C(NNc1nc2nonc2nc1Nc1ccccc1F)c1ccc(OC(F)(F)F)cc1 | – | 4.3 | – | 6 | – | –
19 | O=C(ONc1nc2nonc2nc1Nc1ccccc1F)c1ccc(F)cc1F | – | 1.36 | – | 97 | – | –
20 | Cc1cc(C)cc(C(=O)ONc2nc3nonc3nc2Nc2ccccc2F)c1 | – | 1.49 | – | 9 | – | –
21 | O=C(ONc1nc2nonc2nc1Nc1ccccc1F)c1ccccc1C(F)(F)F | – | 6.56 | – | 65 | – | –
22 | O=C(ONc1nc2nonc2nc1Nc1ccccc1F)c1cccc(C(F)(F)F)c1 | – | 1.58 | – | 71 | – | –
23 | O=C(ONc1nc2nonc2nc1Nc1ccccc1F)c1ccccc1F | – | > 100 | – | 45 | – | –
24 | CCOC(=O)NNc1nc2nonc2nc1Nc1ccccc1F | – | 16.3 | – | 65 | – | –
25 | O=C(ONc1nc2nonc2nc1Nc1ccccc1F)c1cc(C(F)(F)F)ccc1F | – | 1.4 | – | 75 | – | –
26 | Cc1ccc(Nc2nc3nonc3nc2NO)cc1 | – | – | – | – | – | inactive
27 | CC(C)(C)OC(=O)NNc1nc2nonc2nc1Nc1ccccc1Cl | – | 4.6 | 108 | 87 | 170 | –
28 | CCCC(=O)NNc1nc2nonc2nc1Nc1ccccc1F | – | > 100 | – | 31 | – | –
